Columns and labels:
Test in all cases: Test E pre-/postemergence plant response
Format in all cases: in vivo
[1] = tested on: spanishneedles (Bidens bipinnata); conditions: scale 0 to 100
Outline: (§1)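 Pre- and postemergence greenhouse test; compounds formulated in non-phytotoxic solvent with surfactant, postemergence plants 2–18 cm (1- to 4-leaf stage). Visual rating against untreated controls after 14 to 21 days, on a 0 (no effect) to 100 (complete control) scale.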

[2] = tested on: Russian thistle (Salsola kali); conditions: 31 g ai/ha, Preemergence, scale 0 to 100
Outline: as §1

[3] = tested on: common sowthistle (Sonchus oleraceous); conditions: Postemergence, scale 0 to 100
Outline: as §1

[4] = tested on: common ragweed (Ambrosia elation); conditions: scale 0 to 100
Outline: as §1

kochia (Kochia scoparia) = conditions: scale 0 to 100
Outline: as §1

[5] = tested on: Canada horseweed (Conyza canadensis); conditions: Postemergence, scale 0 to 100
Outline: as §1

[6] = tested on: field bindweed (Convolvulus arvensis); conditions: scale 0 to 100
Outline: as §1

[7] = tested on: Virginia (V.) dayflower (Commelina virginica); conditions: scale 0 to 100
Outline: as §1

[8] = tested on: prickly sida (Sida spinosa); conditions: scale 0 to 100
Outline: as §1

CCc1cc(-c2ccc(C(F)(F)F)cc2)nn1-c1c(OS(C)(=O)=O)cnn(C)c1=O [Compound 19]
0: Plant response rating, Spanishneedles ([1]; 4 g ai/ha, Postemergence) | Plant response rating, Spanishneedles ([1]; 16 g ai/ha, Preemergence) | Plant response rating, Spanishneedles ([1]; 31 g ai/ha, Preemergence) | Plant response rating, Spanishneedles ([1]; Postemergence, 8 g ai/ha) | Plant response rating, Spanishneedles ([1]; Postemergence, 16 g ai/ha) | Plant response rating, Spanishneedles ([1]; Preemergence, 4 g ai/ha) | Plant response rating, Thistle, Russian [2] | Plant response rating, Sowthistle ([3]; 4 g ai/ha) | Plant response rating, Sowthistle ([3]; 8 g ai/ha) | Plant response rating, Sowthistle ([3]; 16 g ai/ha) | Plant response rating, Sowthistle ([3]; 31 g ai/ha) | Plant response rating, Ragweed ([4]; 4 g ai/ha, Postemergence) | Plant response rating, Ragweed ([4]; 16 g ai/ha, Preemergence) | Plant response rating, Ragweed ([4]; 31 g ai/ha, Preemergence) | Plant response rating, Ragweed ([4]; Postemergence, 8 g ai/ha) | Plant response rating, Ragweed ([4]; Postemergence, 16 g ai/ha) | Plant response rating, Ragweed ([4]; Postemergence, 31 g ai/ha) | Plant response rating, Ragweed ([4]; Preemergence, 4 g ai/ha) | Plant response rating, Kochia (kochia (Kochia scoparia); 4 g ai/ha, Postemergence) | Plant response rating, Kochia (kochia (Kochia scoparia); 16 g ai/ha, Preemergence) | Plant response rating, Kochia (kochia (Kochia scoparia); 31 g ai/ha, Preemergence) | Plant response rating, Kochia (kochia (Kochia scoparia); Postemergence, 16 g ai/ha) | Plant response rating, Kochia (kochia (Kochia scoparia); Preemergence, 4 g ai/ha) | Plant response rating, Horseweed ([5]; 4 g ai/ha) | Plant response rating, Horseweed ([5]; 8 g ai/ha) | Plant response rating, Horseweed ([5]; 16 g ai/ha) | Plant response rating, Horseweed ([5]; 31 g ai/ha) | Plant response rating, Field Bindweed ([6]; 4 g ai/ha, Postemergence) | Plant response rating, Field Bindweed ([6]; 8 g ai/ha, Preemergence) | Plant response rating, Field Bindweed ([6]; 16 g ai/ha, Preemergence) | Plant response rating, Field Bindweed ([6]; 31 g ai/ha, Preemergence) | Plant response rating, Field Bindweed ([6]; Postemergence, 8 g ai/ha) | Plant response rating, Field Bindweed ([6]; Postemergence, 16 g ai/ha) | Plant response rating, Field Bindweed ([6]; Postemergence, 31 g ai/ha) | Plant response rating, Field Bindweed ([6]; Preemergence, 4 g ai/ha) | Plant response rating, Dayflower, V. ([7]; 4 g ai/ha, Postemergence) | Plant response rating, Dayflower, V. ([7]; 8 g ai/ha, Preemergence) | Plant response rating, Dayflower, V. ([7]; 16 g ai/ha, Preemergence) | Plant response rating, Dayflower, V. ([7]; Postemergence, 8 g ai/ha) | Plant response rating, Dayflower, V. ([7]; Postemergence, 16 g ai/ha) | Plant response rating, Dayflower, V. ([7]; Postemergence, 31 g ai/ha) | Plant response rating, Dayflower, V. ([7]; Preemergence, 4 g ai/ha) | Plant response rating, Prickly Sida ([8]; 4 g ai/ha, Postemergence) | Plant response rating, Prickly Sida ([8]; 16 g ai/ha, Preemergence) | Plant response rating, Prickly Sida ([8]; 31 g ai/ha, Preemergence) | Plant response rating, Prickly Sida ([8]; Postemergence, 8 g ai/ha) | Plant response rating, Prickly Sida ([8]; Postemergence, 16 g ai/ha) | Plant response rating, Prickly Sida ([8]; Postemergence, 31 g ai/ha) | Plant response rating, Prickly Sida ([8]; Preemergence, 4 g ai/ha)

Source: patent publication US20100267561A1, “HERBICIDAL PYRIDAZINONE DERIVATIVES” (priority 2007, published 2010)
